# Marks after values point to notes of the source that are not given here.
# Key:
# [1] = system: anemic Wistar rats; assay: Prevention of iron absorption in anemic rats; format: in vivo, rat; settings: 1 h before 0.5 mg/kg ferrous sulfate
# Procedure: To assess the in vivo efficacy of ferroportin (Fpn) inhibitors to block iron absorption, a series of Fpn inhibitors were tested in an anemic rat model for iron absorption. Wistar rats (3-4 weeks old, n=5, Janvier Labs) were fed a low iron diet (Provimi-Kliba, Cat. 2039) until their hemoglobin (Hb) values reach 7-8 g/dl one day before dosing of the Fpn inhibitor compounds. One hour before oral application of 0.5 mg/kg of ferrous sulfate, test compounds formulated in methyl cellulose or Cremophor were dosed orally. Blood samples were taken by tail vein puncture one hour before administration of iron (−1 h), immediately after dosing of the Fpn inhibitors (0 h) and one hour (1 h), three hours (3 h) and occasionally up to 6 hours (6 h) after dosing of the test compounds. Serum iron levels were measured (Abbott Diagnostics, Cat. 6K95) and inhibition of the rise of serum iron three hours after dosing of the test compound was calculated as a measure for efficacy of the Fpn inhibitors in blocking iron absorption (Table 7).
# [2] = system: Hbb th3/+ mice; assay: Improvement of anemia, ineffective erythropoiesis and iron overload in a mouse model of β-thalassemia intermedia; format: in vivo; settings: hemoglobin difference to vehicle
# [3] = system: b2m−/− mice; assay: Correction of hyperferremia in beta2-microglobulin deficient mice; format: in vivo, mouse; settings: male b2m−/− mice, Dose 20 mg/kg oral, blood collected 1 (#) hour after dosing
# Procedure: Female and male homozygous b2m−/− mice were supplied from Jackson Laboratories (B6.129P2-B2mtm1Unc/J, Stock Number: 002087) at age of 6 to 7 weeks and fed standard diet (Harlan Provimi Kliba 3436) ad libitum. Age and gender matched WT C57BL/6 mice are supplied by Charles River. To study the acute effects of ferroportin (Fpn) inhibitors in iron overload b2m−/− mice were treated with compounds or the corresponding amount of vehicle at a volume of 10 ml/kg body weight. Fpn inhibitor compounds were formulated in 0.5% methylcellulose/water or 20% cremophor EL/water and dosed p.o. in mice at 50 mg/kg body weight. WT controls received only vehicle. Three hours later, mice were pre-terminally anesthetized in isoflurane chambers and blood was collected by retro-orbital bleeding. Mice were sacrificed by cervical dislocation and spleens, livers and duodena were harvested and used for biomarker analysis. All experiments have been performed in compliance with license approved by the responsible veterinarian authorities. Serum was isolated by centrifugation of blood into gel-containing microtainers (BD Biosciences) and serum iron was determined by the MULTIGENT Iron assay (Abbott Diagnostics, Cat. 6K95). Four to nine mice per group were used and one-way ANOVA with Bonferroni's multiple comparison test was applied to analyze the statistical differences between the experimental groups.
# Blood was collected 1 (#) or 3 (##) hours after oral administration of the indicated doses of Fpn inhibitors to beta2-microglobulin deficient mice and serum iron concentrations were measured. Relative reduction (%) of serum iron levels are shown, which were calculated by subtracting the average of serum iron values of animals dosed with the Fpn inhibitor from that of vehicle-treated animals. The difference in average serum iron values between vehicle and compound treated groups was then divided by the average of serum iron of the vehicle control group and listed as percentage.
# [4] = system: Hbb th3/+ mice; assay: Improvement of anemia, ineffective erythropoiesis and iron overload in a mouse model of β-thalassemia intermedia; format: in vivo; settings: % change to vehicle; for Decrease in serum iron: dosed for 3 h
# Procedure: The efficacy of Fpn inhibitors was investigated using a mouse model of transfusion-independent β-thalassemia. Mice with heterozygous deletion of β1 and β2 globin genes (called Hbb th3/+ mice) develop transfusion-independent anemia, ineffective erythropoiesis, splenomegaly and secondary iron overload in spleen, liver and kidneys. […] Hbb th3/+ mice were dosed twice daily with either compound at 20 or 60 mg/kg or with methylcellulose (10 ml/kg, Sigma, Cat. 274429) as a vehicle. Between both doses mice had access to drinking water supplemented with 1 mM ^58Fe(II)-sulfate (Vifor Pharma, Batch No. ROR 3096) and 10 mM ascorbic acid (Sigma, Cat. 795437) for 6 h. […] Water without ^58Fe(II)-Sulfate and ascorbic acid was provided during the remaining 18 h. Dosing of Fpn inhibitors or vehicle followed by exposure to iron-containing water was repeated for 20 to 46 days in individual experiments.
# Additional hematologic parameters were measured in terminal blood using automated blood cell analyzer.
# The inefficient erythropoiesis of Hbb th3/+ mice causes excessive proliferation of erythroid precursors in spleen, leading to splenomegaly.
# Erythroferrone is produced by erythrocyte precursors proliferating massively in spleens of Hbb th3/+ mice as a consequence of extramedullar erythropoiesis.
# Increased iron demand due to inefficient erythropoiesis and chronically low hepcidin levels in patients with thalassemia causes organ iron loading and associated morbidities, such as hepatocellular carcinoma and heart failure (Rivella S. Haematologica, 2015). Hbb th3/+ mice absorb excessive amounts of iron as a consequence of inadequately low hepcidin levels relative to the high iron content in liver, spleen and kidney and increased ferroportin expression in duodenum (Gardenghi S., Blood, 2007).
# Additionally, reactive oxygen species (ROS) were detected in bone marrow cells using a fluorescent indicator, CM-H2DCFDA (Thermo Fisher Scientific, Cat. C6827).
# Table 10. Efficacy of Ferroportin inhibitors in a mouse model of thalassemia intermedia (Hbb th3/+ mice). […] Data are expressed as difference to the vehicle control group for hemoglobin and as % change to the vehicle control group for all other parameter shown
# [5] = system: naïve WT C57BL/6 mice; assay: Hypoferremia in naïve mice; format: in vivo, mouse; settings: Mus musculus, po, 3 h, read-out: Serum Iron Reduction at 3 h (%)
# Procedure: Female C57BL/6 mice (Janvier, France) at age of 9 weeks were fed a standard diet (Harlan Provimi Kliba 3436) and treated per os (p.o.) with compounds or the corresponding amount of vehicle at a volume of 10 ml/kg body weight. Fpn inhibitors were formulated in 0.5% methylcellulose/water or 20% cremophor EL/water and dosed p.o. in mice at 10, 30 or 100 mg/kg body weight. Three hours later, mice were pre-terminally anesthetized in isoflurane chambers and blood was collected by retro-orbital bleeding. Mice were sacrificed by cervical dislocation and spleens, livers and duodena were harvested and used for biomarker analysis. All experiments have been conducted in compliance with the license approved by the responsible veterinarian authorities. Serum was isolated by centrifugation of blood into gel-containing microtainers and serum iron was determined by the MULTIGENT Iron assay (Abbott Diagnostics, 6K95). Eight mice per group were used and one-way ANOVA with Bonferroni's multiple comparison test was performed to analyze the statistical differences between the experimental groups.
# Relative serum iron reduction at 3 h after dosing was calculated by subtracting the average of serum iron values of animals dosed with the Fpn inhibitor from that of vehicle-treated animals. The difference in average serum iron values between vehicle and compound treated groups was then divided by the average of serum iron of the vehicle control group and listed as percentage.
compound,measurement,setting,value
O=C(NCc1ncccc1F)c1cnc(CCNCCc2nc3ccccc3[nH]2)o1 [Example 1],Serum Iron Inhibition (%) at 3 h,[1]; Dose 10 mg/kg oral,42.6** %
same,Serum Iron Inhibition (%) at 3 h,[1]; Dose 30 mg/kg oral,64.9*** %
O=C(NCc1ncccc1F)c1cnc(C2CN(CCc3nc4ccccc4[nH]3)C2)o1 [Example 2],Correction of anemia at day 20-48,[2]; 20 mg/kg twice daily,3 g/L
same,Correction of anemia at day 20-48,[2]; 60 mg/kg twice daily,11 g/L
O=C(NCc1ncccc1F)c1csc(CCNCc2nc3ccccc3[nH]2)n1 [Example 40],Serum Iron Reduction (%),[3],35** %
same,Decrease in serum erythropoietin,[4]; 20 mg/kg twice daily for 20-46 days,6%
same,Decrease in serum iron,[4]; 20 mg/kg,28%
same,Decrease in serum iron,[4]; 60 mg/kg,58%
O=C(NCc1ncccc1F)c1cnn(CCNCCc2cc3ccccc3[nH]2)c1 [Example 277],inhibition in vivo at 10 mg/kg,[5],6%
same,inhibition in vivo at 30 mg/kg,[5],21%
same,inhibition in vivo at 100 mg/kg,[5],54%

# From patent US11066399B2, “Ferroportin inhibitors” (Vifor (International) AG, priority 2015, dated 2021)
